According to US7923440B2, “Method of treating or preventing immune mediated disorders and pharmaceutical formulation for use therein” (Pantarhei Bioscience B.V., priority 2002, dated 2011):

Test system: B10.PL mice with experimental autoimmune encephalomyelitis (EAE)
Experiment: MBP induced EAE in B10.PL mice
Assay type: in vivo, mouse
[1] = ovariectomized female B10.PL mice, sc and oral 0.1-3.0 mg/kg/day, 40 days

C[C@]12CC[C@@H]3c4ccc(O)cc4CC[C@H]3[C@@H]1[C@@H](O)[C@@H](O)[C@@H]2O [E4, 1,3,5 (10)-estratrien-3,15α,16α,17β-tetrol]
symptoms and severity of EAE (non-castrated female and male B10.PL mice, daily sc and/or oral): dose-dependently alleviate symptoms and severity of EAE | number of afflicted animals and/or severity of EAE symptoms [1]: dose-dependently reduced | onset of EAE disease symptoms [1]: dose-dependent effects in delaying the onset of EAE disease symptoms
